Reference: ChEMBL document CHEMBL1152143, “Potent benzimidazolone-based CGRP receptor antagonists” (Bioorg Med Chem Lett, 2008)

Columns and labels:
Conditions in all cases: Macaca mulatta
Rhesus monkey [1] = assay: Inhibition of CGRP-induced vasodilation in rhesus monkey at plasma concentration of 2 uM; format: functional
Rhesus monkey [2] = assay: Inhibition of CGRP-induced vasodilation in rhesus monkey
Rhesus monkey [3] = assay: Inhibition of CGRP-induced vasodilation in rhesus monkey at plasma concentration of 10 uM; format: functional

EC50 (Rhesus monkey [2])	Compound	inhibition at 2 µM (Rhesus monkey [1])	inhibition at 10 µM (Rhesus monkey [3])
0.3 µM	Cc1cc(C)c2c(c1)n(CC(=O)Nc1ccc3c(c1)C[C@]1(C3)C(=O)NC(=O)N1C)c(=O)n2CC(=O)N(C)C	100%	
10 µM	Cc1cc(C)c2c(c1)n(CC(=O)Nc1ccc3c(c1)C[C@]1(C3)C(=O)NC(=O)N1C)c(=O)n2C		50%
